Where “and” joins values, the source holds several entries; their conditions need not be identical. Identical values can stand only once.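 Assay format: 96-well plates, 48-hour exposure. GI50: concentration for 50% inhibition of growth. At the TGI there is no net growth.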
Columns and labels:
Experiment in all cases: DTP human tumour cell line panel, 48 h
IGROV1 ovarian = system: IGROV1 ovarian
HCC-2998 colon = system: HCC-2998 colon
CCRF-CEM leukemia = system: CCRF-CEM leukemia
MALME-3M melanoma = system: MALME-3M melanoma
SF-539 CNS = system: SF-539 CNS
HL-60(TB) leukemia = system: HL-60(TB) leukemia
NCI/ADR-RES ovarian = system: NCI/ADR-RES ovarian
K-562 leukemia = system: K-562 leukemia
SK-MEL-28 melanoma = system: SK-MEL-28 melanoma
SR leukemia = system: SR leukemia

| SMILES | TGI (IGROV1 ovarian) | TGI (HCC-2998 colon) | TGI (CCRF-CEM leukemia) [µM] | TGI (MALME-3M melanoma) | TGI (SF-539 CNS) [µM] | TGI (HL-60(TB) leukemia) | TGI (NCI/ADR-RES ovarian) | TGI (K-562 leukemia) | TGI (SK-MEL-28 melanoma) | GI50 (IGROV1 ovarian) | GI50 (HCC-2998 colon) | GI50 (CCRF-CEM leukemia) | GI50 (MALME-3M melanoma) | GI50 (SF-539 CNS) | GI50 (HL-60(TB) leukemia) | TGI (SR leukemia) [µM] |
| --- | --- | --- | --- | --- | --- | --- | --- | --- | --- | --- | --- | --- | --- | --- | --- | --- |
| COc1cc2c(cc1OCCCC(=O)Nc1cc(C(=O)Nc3cc(C(=O)Nc4cc(C(=O)NCCCN(C)C)n(C)n4)n(C)n3)n(C)n1)N=CC1CCCN1C2=O (stereo not drawn) | 7.98 µM | 93.5 µM | > 100 | 25.5 µM | > 100 | > 100 µM | 81.7 µM | > 100 µM | 30.7 µM |  |  |  |  |  |  |  |
| CC[N+]1(C)CCC(O)(/C=C/c2ccc(OC)cc2)C(C(=O)/C=C/c2ccc(OC)cc2)C1 (stereo not drawn) | 47.1 µM | 46.4 µM |  | 34.6 µM | > 45.7 | 5.03 µM | > 60.8 µM | 4.5 µM | 31.7 µM |  |  |  |  |  |  |  |
| [Cl][Pt+2][Cl].[NH-]C1CCCCC1[NH-] (stereo not drawn) | > 100 µM and 45.8 µM | > 100 µM and 24.2 µM | > 100 | 32.4 µM and 24 µM and 7.45 µM | > 100 | 4.49 µM and 8.45 µM and 1.89 µM | > 60.6 µM and > 100 µM and 13.1 µM | > 100 µM and 17.8 µM | 65.8 µM and 56.4 µM and 20.6 µM | 18.9 µM and 9.23 µM and 2.45 µM | 42.6 µM and 17.2 µM and 4.67 µM | 3.19 µM and 2.91 µM and 0.872 µM | 10.2 µM and 3.39 µM and 1.14 µM | 21.6 µM and 6.79 µM and 6.99 µM | 0.884 µM and 1.46 µM and 0.199 µM |  |
| Cc1ccc(C(C)(C)C[P+](C)(c2ccccc2)c2ccccc2)cc1 | > 100 µM | > 70.3 µM | > 79.3 | > 48.8 µM | > 100 | 7.56 µM | > 100 µM | 46 µM | 66.4 µM |  |  |  |  |  |  |  |
| CC1(C)OCC(C(O)C2OC(C)(C)OC2C=O)O1 (stereo not drawn) | > 100 µM |  | > 100 | > 100 µM |  |  | > 100 µM | > 100 µM | > 100 µM |  |  |  |  |  |  | > 100 |
| CC(=O)Nc1ccc(C(=O)NN2C(=O)C(Cl)C2c2ccc([N+](=O)[O-])cc2)cc1 (stereo not drawn) | > 100 µM |  | > 100 | > 100 µM | > 100 | > 100 µM |  | > 100 µM | > 100 µM |  |  |  |  |  |  |  |
| COc1ccc(NC(=O)C(=O)Cc2nc3ccc([N+](=O)[O-])cc3[nH]c2=O)c(OC)c1 | > 100 µM | > 100 µM | > 100 | > 100 µM | > 100 | > 100 µM |  | > 100 µM | > 100 µM |  |  |  |  |  |  |  |
| COc1nc(N(C)C)nc2c1n(C)c[n+]2C | > 100 µM |  | > 100 | > 100 µM | > 100 | > 100 µM | > 100 µM | > 100 µM | > 100 µM |  |  |  |  |  |  |  |
| C/C(=C\c1ccccn1)c1ccccn1 | > 100 µM | > 100 µM |  | > 100 µM |  |  | > 100 µM | > 100 µM | > 100 µM |  |  |  |  |  |  |  |
| Cc1ccccc1-n1c(C)nc2c1C(=O)c1ccccc1C2=O |  | > 100 µM | > 100 | 41.3 µM | > 100 | 87.5 µM |  | > 100 µM | > 100 µM |  |  |  |  |  |  | > 100 |
| CCOC(=O)c1c(CN2CCNCC2)nc2ccccc2c1-c1ccccc1 | 29.2 µM | 3.63 µM | 38.2 | 22 µM | 34.8 | 30.6 µM | 34.4 µM | 27.2 µM | 25.1 µM |  |  |  |  |  |  |  |
| CC(=O)/C(=C/n1c(=S)[nH]c2ccccc21)C(=O)Nc1ccccc1C | > 100 µM | > 100 µM |  |  | > 100 | > 100 µM | > 100 µM |  | > 100 µM |  |  |  |  |  |  |  |
| CC12N=NN(c3ccc([N+](=O)[O-])cc3)C1(O)c1ccccc1C2=O (stereo not drawn) | > 100 µM | > 100 µM |  | > 100 µM | > 100 | > 100 µM |  |  |  |  |  |  |  |  |  | > 100 |
| OCC1OC(n2cnc3cncnc32)C(O)C1O (stereo not drawn) | 4.81 µM | 2.84 µM | > 26.1 | 4.73 µM | 2.94 | 1.73 µM | 2.25 µM | 9.77 µM | 5.23 µM |  |  |  |  |  |  |  |
| C/C=C\C(CC(=O)NCCc1cn(C(=O)OCc2ccccc2)c2ccccc12)CC(=O)OC (stereo not drawn) | > 100 µM | > 100 µM |  | > 100 µM |  |  | > 100 µM | > 100 µM | > 100 µM |  |  |  |  |  |  |  |
| Clc1ccc(Cc2nc3ccccc3nc2-c2cccc(Br)c2)cc1 | 3.49 µM | 3.36 µM | 5.04 | 22.5 µM | 5.23 | 6.49 µM | 15.3 µM | 8.46 µM |  |  |  |  |  |  |  |  |
| CC(C)=CCC/C(C)=C/CC/C(C)=C/Cc1c(O)c2ccccc2oc1=O | > 100 µM | > 100 µM | > 100 | > 100 µM | > 100 | > 100 µM |  | > 100 µM | > 100 µM |  |  |  |  |  |  | > 100 |
| COC(=O)C1CCC(=O)N1C(=O)Cc1ccc(OC)cc1 (stereo not drawn) | > 100 µM |  |  |  |  |  |  |  | > 100 µM |  |  |  |  |  |  |  |
| Cc1cc(O)c(C(C)C)cc1SC#N | 37.6 µM | 32.9 µM | 24.6 | 35.9 µM | 37.1 | > 100 µM | 47.7 µM | 55 µM | 33.8 µM |  |  |  |  |  |  |  |
| CC(=O)O[C@@H]1C[C@@]23C[C@@]24CC[C@H](OC2OCC(O)C(O)C2O)C(C)(C)[C@@H]4CC=C3[C@]2(C)C[C@@H]3OC4(C[C@@H](C)[C@@H]3[C@@]12C)OC(O)[C@@]1(C)O[C@@H]41 (stereo partly drawn) | > 100 µM | 40.5 µM | 63.5 | > 100 µM | 41.4 | 36.4 µM | > 100 µM | > 100 µM | > 100 µM |  |  |  |  |  |  |  |
